This passage reports Activity results from ChEMBL document CHEMBL1156397, “A benzylisoquinoline alkaloid from Doryphora sassafras” (J Nat Prod, 2001).

This assay has as its target Kappa-type opioid receptor (Cavia porcellus) (UniProt P41144). Description: Displacement of [3H]U69593 from kappa opioid receptor in guinea pig brain membrane at 100 uM by Betaplate liquid scintillation counter. Type of assay: cell membranes.

Kappa-type opioid receptor (Cavia porcellus), sequence (P41144 whole entry): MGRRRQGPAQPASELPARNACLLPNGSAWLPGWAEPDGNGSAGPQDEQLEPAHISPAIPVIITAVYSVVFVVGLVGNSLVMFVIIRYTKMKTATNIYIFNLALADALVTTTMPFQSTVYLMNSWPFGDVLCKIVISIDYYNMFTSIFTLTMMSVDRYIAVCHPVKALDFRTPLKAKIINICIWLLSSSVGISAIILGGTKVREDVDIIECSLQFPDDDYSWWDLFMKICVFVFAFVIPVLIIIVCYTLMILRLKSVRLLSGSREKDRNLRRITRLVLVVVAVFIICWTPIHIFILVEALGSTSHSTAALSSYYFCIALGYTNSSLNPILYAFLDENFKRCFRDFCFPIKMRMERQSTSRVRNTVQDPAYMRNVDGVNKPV

For the compound `COc1ccc(Cc2c3cc4c(cc3cc[n+]2C)OCO4)cc1`, the Activity turned out to be 50%.
